SMILES	boiling point [°C]	melting point [°C]	other results
COc1ccc(N)cc1	243	57.2	log10 Henry constant (atm·m³/mol): -7.18; log10 Koc (L/kg): 1.93; log10 vapour pressure (mmHg): -1.52; ready biodegradability: readily biodegradable
CCCC(=O)Cl	102	-89	–
C=CC=CC=C	78	-12	log10 vapour pressure (mmHg): 1.95
CN(C)C(=O)Nc1ccc(SC(F)(F)Cl)c(Cl)c1	–	114	–
C#CC(C)(C)Cl	76	-61	–
CCCCc1cccs1	182	–	–
O=C(NC(=O)c1c(F)cccc1F)Nc1ccc(CO/N=C(/c2ccc(Cl)cc2)C2CC2)cc1	–	–	log10 vapour pressure (mmHg): -9.39
O=C(O)c1cnc(O)nc1O	–	283	–
O=C(Cc1ccccc1)OCCc1ccccc1	–	26.5	–
O=C(O)c1cc(O)c(O)c(O)c1	–	–	ready biodegradability: readily biodegradable
O=NN1CCC[C@H]1c1cccnc1	–	47	–
CC1(C)COC(C)(C)C1	121	–	–
C=C(C)C(=O)Cl	96	-60	–
CC(C)OC(=O)C1(S(=O)(=O)c2ccc(Cl)cc2)CC1	–	89.8	–
c1ccc(C2CCCC2)cc1	219	–	–
N#CCN(CC#N)CC#N	–	126	log10 vapour pressure (mmHg): -6.5
CC(=O)c1ccsc1	210	60	–
CCCCCCC(=O)c1ccccc1	283	16.4	–
O=C(Cl)c1ccc(Cl)cc1	222	16	–
CCCC(C)(CC)C(C)C (stereo not drawn)	166	–	–
CCCCOCCOCCOCCCC	256	-60	log10 vapour pressure (mmHg): -1.58
Clc1ccc2c(Cl)c(Cl)ccc2c1	–	–	log10 Koa: 7.5
O=P(O)(O)OCC(O)CO (stereo not drawn)	–	-25	–
C[C@@H]1C=Cc2ccccc21	199	–	–
COC1=CC(=O)C[C@@H](C)[C@]12Oc1c(Cl)c(OC)cc(OC)c1C2=O	–	220	–

SMILES	boiling point [°C]	melting point [°C]	other results
O=CCCl	85.5	-16.3	log10 vapour pressure (mmHg): 1.81
CCN(CC)C(=S)SSC(=S)N(CC)CC	–	71.5	–
COc1cc(O)c(C(=O)c2ccccc2)cc1S(=O)(=O)O	–	145	–
CCOC(=O)c1cn2nc(OP(=S)(OCC)OCC)cc2nc1C	–	51	–
CCc1ccc(C)c(C)c1	190	-66.9	log10 biodegradation half-life (days): 0.699; log10 vapour pressure (mmHg): -0.126
Nc1cccc([N+](=O)[O-])c1	306	114	log10 Henry constant (atm·m³/mol): -8.1; log10 Koc (L/kg): 1.73; log10 vapour pressure (mmHg): -4.02; ready biodegradability: not readily biodegradable; log10 BCF (fish): 0.48; log10 biotransformation half-life (days) (fish): -0.77
O=Cc1cc(O)ccc1[N+](=O)[O-]	–	167	–
O=C1c2ccccc2C(=O)C1C(=O)C(c1ccccc1)c1ccccc1	–	146	log10 vapour pressure (mmHg): -9.99
C[C@]12CCC(=O)C=C1CC[C@@H]1[C@@H]2CC[C@]2(C)C(=O)CC[C@@H]12	–	158	–
O=C1c2ccccc2C(=O)N1CCCBr	–	75	–
O=C(CC(=O)c1ccccc1)c1ccccc1	–	70.5	ready biodegradability: readily biodegradable
Nc1cccc(N)c1	285	63.5	log10 vapour pressure (mmHg): -2.68; ready biodegradability: not readily biodegradable; log10 BCF (fish): 0.81
N#CCCCCCC#N	–	-31.4	–
O=C=Nc1ccc(Cc2ccc(N=C=O)cc2)cc1	–	38	–
Cc1cc(OC(=O)N(C)C)n(-c2ccccc2)n1	–	50	–
O=c1ccc2ccccc2[nH]1	–	200	–
CCCCNC	91	-75	–
C[C@@H]1C[C@H]2[C@@H]3CCC4=CC(=O)C=C[C@]4(C)[C@@]3(F)[C@@H](O)C[C@]2(C)[C@@]1(O)C(=O)CO	–	248	–
CCC(C)(O)CCC(C)C (stereo not drawn)	173	–	–
C1CCC(NC2CCCCC2)CC1	256	-0.1	log10 vapour pressure (mmHg): -1.47; ready biodegradability: readily biodegradable
O=[N+]([O-])CCl	122	–	–
CC(=O)OCC(=O)O	–	67.5	–
O=c1nn[nH]c2ccccc12	–	217	–
CC12CCC(CC1=O)C2(C)C (stereo not drawn)	206	179	log10 vapour pressure (mmHg): -0.665; ready biodegradability: readily biodegradable
CCN(Cc1c(F)cccc1Cl)c1c([N+](=O)[O-])cc(C(F)(F)F)cc1[N+](=O)[O-]	–	102	log10 Koc (L/kg): 4; log10 vapour pressure (mmHg): -6.62

Reference: the OPERA property sets (Mansouri et al. 2018)
